Test results as given in ChEMBL document CHEMBL5154698, “Novel PHD2/HDACs hybrid inhibitors protect against cisplatin-induced acute kidney injury” (Eur J Med Chem, 2022).
Calls of active or inactive are those of the source. The rule behind the calls is not given here.

How the values were obtained:
[1] = tested on: Mus musculus; test: Nephroprotective activity against cisplatin-induced acute kidney injury in male C57BL/6 mouse assessed as plasma SCr concentration at 10 mg/kg/day, ip; format: functional
[2] = tested on: Mus musculus; test: Nephroprotective activity against cisplatin-induced acute kidney injury in male C57BL/6 mouse assessed as plasma BUN concentration at 10 mg/kg/day, ip; format: functional
[3] = tested on: HK-2; test: Antiproliferative activity against human HK-2 cells assessed as decrease in cell viability at 0.78 uM measured after 24 hrs by CCK-8 assay; format: functional
[4] = tested on: A549; test: Antiproliferative activity against human A549 cells assessed as decrease in cell viability at 50 uM in presence of 40 uM cisplatin relative to control; format: functional
[5] = tested on: A549; test: Induction of apoptosis in human A549 cells assessed as apoptotic cell population at 50 uM in presence of 100 uM cisplatin measured by Annexin V-FITC/propidium iodide staining based flow cytometry assay; format: functional
[6] = tested on: Mus musculus; test: Nephroprotective activity against cisplatin-induced acute kidney injury in male C57BL/6 mouse assessed as decrease tubular injury at 10 mg/kg/day, ip; format: functional, organism-based
[7] = tested on: HK-2; test: Antiproliferative activity against human HK-2 cells assessed as decrease in cell viability at 50 uM measured in presence of 10 uM cisplatin after 24 hrs by CCK-8 assay; format: functional
[8] = tested on: MCF7; test: Antiproliferative activity against human MCF7 cells assessed as decrease in cell viability at 50 uM relative to control; format: functional, cell-based
[9] = target: Histone deacetylase 2 (Homo sapiens, UniProt Q92769)
[10] = target: Histone deacetylase 4 (Homo sapiens, UniProt P56524); test: Inhibition of HDAC4 (unknown origin) using trypsin and Ac-peptide as substrates
[11] = tested on: MCF7; test: Antiproliferative activity against human MCF7 cells assessed as decrease in cell viability at 50 uM in presence of 100 uM cisplatin relative to control; format: functional
[12] = target: Egl nine homolog 1 (Homo sapiens, UniProt Q9GZT9); test: Inhibition of PHD2 (unknown origin) measured by fluorescence polarization assay
[13] = tested on: MCF7; test: Induction of apoptosis in human MCF7 cells assessed as apoptotic cell population at 50 uM in presence of 100 uM cisplatin measured by Annexin V-FITC/propidium iodide staining based flow cytometry assay; format: functional
[14] = tested on: A549; test: Antiproliferative activity against human A549 cells assessed as decrease in cell viability at 50 uM relative to control; format: functional, cell-based
[15] = target: T1, Protein deacetylase HDAC6 (Homo sapiens, UniProt Q9UBN7); test: Inhibition of HDAC6 (unknown origin) using trypsin and Ac-peptide as substrates
T1 sequence (Q9UBN7 whole entry): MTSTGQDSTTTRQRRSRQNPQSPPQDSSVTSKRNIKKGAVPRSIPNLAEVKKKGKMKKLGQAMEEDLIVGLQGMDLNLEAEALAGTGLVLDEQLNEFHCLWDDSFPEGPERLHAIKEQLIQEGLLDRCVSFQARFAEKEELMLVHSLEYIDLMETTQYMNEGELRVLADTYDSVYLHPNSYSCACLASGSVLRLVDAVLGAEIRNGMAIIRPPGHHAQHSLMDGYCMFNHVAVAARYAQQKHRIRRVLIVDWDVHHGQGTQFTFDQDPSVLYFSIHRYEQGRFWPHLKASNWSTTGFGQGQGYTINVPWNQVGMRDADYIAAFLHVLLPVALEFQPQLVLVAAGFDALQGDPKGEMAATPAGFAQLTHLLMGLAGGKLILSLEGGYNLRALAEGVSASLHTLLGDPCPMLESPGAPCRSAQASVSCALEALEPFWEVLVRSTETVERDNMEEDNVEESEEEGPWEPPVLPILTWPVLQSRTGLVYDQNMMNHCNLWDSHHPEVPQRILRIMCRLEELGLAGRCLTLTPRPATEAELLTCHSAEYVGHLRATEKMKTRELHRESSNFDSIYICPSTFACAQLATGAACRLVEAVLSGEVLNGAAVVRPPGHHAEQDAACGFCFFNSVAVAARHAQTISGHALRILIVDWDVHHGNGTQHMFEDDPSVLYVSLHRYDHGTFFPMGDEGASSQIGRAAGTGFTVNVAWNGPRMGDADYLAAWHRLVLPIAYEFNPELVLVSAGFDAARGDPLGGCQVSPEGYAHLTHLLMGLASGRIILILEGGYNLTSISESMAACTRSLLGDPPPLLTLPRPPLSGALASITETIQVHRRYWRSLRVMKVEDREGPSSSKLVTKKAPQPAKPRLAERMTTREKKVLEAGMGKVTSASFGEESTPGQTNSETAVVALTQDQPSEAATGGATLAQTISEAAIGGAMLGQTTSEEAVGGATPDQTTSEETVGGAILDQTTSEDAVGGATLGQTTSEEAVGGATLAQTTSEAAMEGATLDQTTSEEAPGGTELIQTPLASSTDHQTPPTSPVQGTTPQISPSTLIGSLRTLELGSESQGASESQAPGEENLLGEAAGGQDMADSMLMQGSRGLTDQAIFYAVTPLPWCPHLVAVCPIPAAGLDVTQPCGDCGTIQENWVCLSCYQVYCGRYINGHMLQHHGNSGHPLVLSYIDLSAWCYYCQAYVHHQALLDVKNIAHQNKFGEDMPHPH

[16] = tested on: Mus musculus; test: Nephroprotective activity against cisplatin-induced acute kidney injury in male C57BL/6 mouse assessed as serum EPO level at 10 mg/kg/day, ip; format: functional
[17] = tested on: MCF7; test: Induction of apoptosis in human MCF7 cells assessed as apoptotic cell population at 50 uM measured by Annexin V-FITC/propidium iodide staining based flow cytometry assay; format: functional
[18] = tested on: Mus musculus; test: Nephroprotective activity against cisplatin-induced acute kidney injury in male C57BL/6 mouse assessed as decrease in expression of NGAL at 10 mg/kg/day, ip; format: functional, organism-based
[19] = target: Histone deacetylase 1 (Homo sapiens, UniProt Q13547); test: Inhibition of HDAC1 (unknown origin) using trypsin and Ac-peptide as substrates
[20] = tested on: A549; test: Induction of apoptosis in human A549 cells assessed as apoptotic cell population at 50 uM measured by Annexin V-FITC/propidium iodide staining based flow cytometry assay; format: functional

Sequence of Histone deacetylase 2 (Q92769 whole entry): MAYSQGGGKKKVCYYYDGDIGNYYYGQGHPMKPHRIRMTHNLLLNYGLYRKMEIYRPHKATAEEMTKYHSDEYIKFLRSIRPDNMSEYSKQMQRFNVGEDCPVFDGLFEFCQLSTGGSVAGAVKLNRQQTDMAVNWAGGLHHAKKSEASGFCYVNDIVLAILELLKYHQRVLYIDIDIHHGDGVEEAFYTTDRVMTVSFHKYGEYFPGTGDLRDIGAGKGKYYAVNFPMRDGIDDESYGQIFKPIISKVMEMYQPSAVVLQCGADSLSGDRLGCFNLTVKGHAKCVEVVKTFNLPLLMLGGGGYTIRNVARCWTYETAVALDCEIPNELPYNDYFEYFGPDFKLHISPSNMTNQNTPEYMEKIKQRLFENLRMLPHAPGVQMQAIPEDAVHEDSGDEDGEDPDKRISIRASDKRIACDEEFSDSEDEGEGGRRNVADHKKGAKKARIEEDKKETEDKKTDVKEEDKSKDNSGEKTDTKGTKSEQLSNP
Sequence of Egl nine homolog 1 (Q9GZT9 whole entry): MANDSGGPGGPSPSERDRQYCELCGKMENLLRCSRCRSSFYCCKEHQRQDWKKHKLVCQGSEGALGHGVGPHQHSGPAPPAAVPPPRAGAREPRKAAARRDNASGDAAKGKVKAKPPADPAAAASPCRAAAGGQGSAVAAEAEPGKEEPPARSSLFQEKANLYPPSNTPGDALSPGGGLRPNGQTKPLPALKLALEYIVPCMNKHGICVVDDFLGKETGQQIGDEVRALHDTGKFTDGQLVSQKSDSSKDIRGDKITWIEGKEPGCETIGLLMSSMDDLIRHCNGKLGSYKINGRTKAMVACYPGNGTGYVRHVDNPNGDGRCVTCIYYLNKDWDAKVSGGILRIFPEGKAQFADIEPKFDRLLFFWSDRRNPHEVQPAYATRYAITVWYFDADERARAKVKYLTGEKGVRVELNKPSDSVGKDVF
Sequence of Histone deacetylase 4 (P56524 whole entry): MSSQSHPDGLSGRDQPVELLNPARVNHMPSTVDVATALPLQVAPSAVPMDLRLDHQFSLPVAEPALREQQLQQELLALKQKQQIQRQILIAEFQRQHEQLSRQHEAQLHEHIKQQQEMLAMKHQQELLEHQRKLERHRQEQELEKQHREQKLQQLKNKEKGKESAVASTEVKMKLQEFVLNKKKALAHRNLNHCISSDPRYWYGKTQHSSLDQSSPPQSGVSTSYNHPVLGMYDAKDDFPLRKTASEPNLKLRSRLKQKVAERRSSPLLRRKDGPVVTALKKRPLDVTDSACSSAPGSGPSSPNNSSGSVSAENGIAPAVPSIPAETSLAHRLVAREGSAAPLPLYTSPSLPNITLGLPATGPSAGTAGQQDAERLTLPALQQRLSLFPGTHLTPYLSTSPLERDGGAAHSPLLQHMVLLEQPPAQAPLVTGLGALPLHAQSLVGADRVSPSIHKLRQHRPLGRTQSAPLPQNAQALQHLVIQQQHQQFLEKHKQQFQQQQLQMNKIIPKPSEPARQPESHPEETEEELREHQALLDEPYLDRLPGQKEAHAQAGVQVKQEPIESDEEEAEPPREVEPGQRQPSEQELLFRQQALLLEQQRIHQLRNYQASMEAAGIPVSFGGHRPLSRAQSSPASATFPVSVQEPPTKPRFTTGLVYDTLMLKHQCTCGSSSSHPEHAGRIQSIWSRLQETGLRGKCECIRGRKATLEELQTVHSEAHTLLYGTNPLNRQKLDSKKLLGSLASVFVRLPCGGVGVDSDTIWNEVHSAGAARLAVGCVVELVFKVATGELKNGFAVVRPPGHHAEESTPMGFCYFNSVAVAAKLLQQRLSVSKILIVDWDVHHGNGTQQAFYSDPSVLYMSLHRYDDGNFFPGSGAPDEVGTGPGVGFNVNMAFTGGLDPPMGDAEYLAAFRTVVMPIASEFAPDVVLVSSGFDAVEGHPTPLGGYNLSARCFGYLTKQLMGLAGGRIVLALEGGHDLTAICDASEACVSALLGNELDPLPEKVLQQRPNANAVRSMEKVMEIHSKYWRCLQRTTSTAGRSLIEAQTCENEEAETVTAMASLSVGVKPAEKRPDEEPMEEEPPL
Sequence of Histone deacetylase 1 (Q13547 whole entry): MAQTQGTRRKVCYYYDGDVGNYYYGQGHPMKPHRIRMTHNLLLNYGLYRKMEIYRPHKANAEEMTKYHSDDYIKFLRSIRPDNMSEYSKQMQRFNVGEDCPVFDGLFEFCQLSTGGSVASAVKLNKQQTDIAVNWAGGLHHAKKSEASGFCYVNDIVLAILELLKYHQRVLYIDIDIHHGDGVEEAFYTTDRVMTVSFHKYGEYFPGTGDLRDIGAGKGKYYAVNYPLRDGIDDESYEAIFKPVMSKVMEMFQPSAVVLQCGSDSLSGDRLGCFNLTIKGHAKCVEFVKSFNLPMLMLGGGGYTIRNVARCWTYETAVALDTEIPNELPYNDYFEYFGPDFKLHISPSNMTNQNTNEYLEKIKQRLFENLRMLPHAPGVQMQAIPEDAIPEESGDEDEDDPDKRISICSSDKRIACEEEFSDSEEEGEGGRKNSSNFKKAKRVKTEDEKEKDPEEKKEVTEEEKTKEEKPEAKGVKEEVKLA

Row | SMILES | Activity [1] [mmol/L] | Activity [2] [mmol/L] | Activity [3] [%] | Activity [4] [%] | Activity [5] [%] | Activity [6] | Activity [7] [%] | Activity [8] | IC50 [9] [nM] | IC50 [10] [nM] | Activity [11] [%] | IC50 [12] [nM] | Activity [13] [%] | Activity [14] | IC50 [15] [nM] | Activity [16] [mIU/ml] | Activity [17] [%] | Activity [18] | IC50 [19] [nM] | Activity [20] [%]
1 | CC(/C=C/C(=O)NO)=C\[C@@H](C)C(=O)c1ccc(N(C)C)cc1 [TRICHOSTATIN] | 0.129 | 8.86 | 70 |  |  |  |  |  |  |  |  |  |  |  |  |  |  |  |  | 
2 | O=C(NO)c1cnc(N2CCC(NC(=O)c3cnc(-n4cccn4)nc3O)CC2)nc1 | 0.0311 | 10.86 |  | 39.09 | 13.2 | Active | 61.96 | Active | 26.6 | 1170 | 36.83 | 1150 | 26.6 | Active | 16 | 15.34 | 19.3 | Active | 19.8 | 4.9
3 | Cc1nc(C(=O)NCC(=O)O)c(O)c2ccc(Oc3ccccc3)cc12 [ROXADUSTAT] | 0.0947 | 13.91 |  |  |  |  | 71.12 |  |  |  |  |  |  |  |  | 23.46 |  |  |  | 
